Experimental findings from patent US8043422B2, “Combinations of phenylpyrroles and pyrion compounds” (Janssen Pharmaceutica, NV, priority 2008, dated 2011) are described below.

Molecules are shown by their SMILES. Like-named read-outs stand apart in the source and are kept apart here.

Holding throughout (format): cell-based
Assay [1] concerns Staphylococcus aureus (g+) LMG 8064. Nature of the assay: Poison Plate Assay, bacteria. The conditions noted are these: for MIC: LMG8064, 120 h, read-out: MIC-values (minimum inhibitory concentration) in ppm; for MIC-values (minimum inhibitory concentration) in ppm: fludioxonil (I-a) with sodium pyrithione (II-h). How it is done:
(§1) • Test models: • Fungi: to each well of a 24-well microtiter plate, 1000 μl of a rich (Potato Dextrose Agar, PDA: 4 g potato infusion, 20 g bacto dextrose and 15 g bacto agar in 1 liter deionised water) or poor (Glucose Agar, GA: 10 g glucose, 1.5 g K2HPO4, 2 g KH2PO4, 1 g (NH4)2SO4, 0.5 g MgSO4 and 12.5 g agar in 1 liter deionised water) medium containing the appropriate combination of the test compounds in one of the concentrations of a dose series is added. The nutrient medium is inoculated with the test fungi by adding a spore/mycelium suspension (10 μl) or a small piece of agar from the margin of an actively growing colony and incubated under dark at 27° C. with 70% relative humidity. The growth of the fungi is evaluated after two weeks. • Glucose agar was used in some experiments instead of PDA (Potato Dextrose Agar), as an alternative, poorer medium for the fungi, in order to increase the chances of detecting activity in compounds like fludioxonil, whose mode of action could be partly circumvented by fungi on a richer medium (Copping, L. and Hewitt, G. (1998) “Chemistry and mode of action of crop protection agents.” The Royal Society of Chemistry, Cambridge. 145 pp.). • Bacteria: to each well of a 24-well microtiter plate, 1000 μL Tryptose Agar (TA, 20 g bacto tryptose agar, 5 g sodium chloride, 1 g bacto dextrose and 15 g agar in 1 liter deionised water), containing the test compounds in one of the concentrations of a dose series is added. The nutrient medium is inoculated by adding 10 μl of an actively growing liquid culture of the test bacteria in tryptose broth (without agar), and incubated under dark at 27° C. with 70% relative humidity. Growth is evaluated after five days. • Concentrations: • MIC values for single compounds were collected from previous screening experiments. These MIC values were used as a guide in determining of the most suitable test dose ranges. • Synergy experiment with bispyrithione: • 25.00-18.75-14.06-10.55-7.91-5.93-4.45-3.34-2.50-1.88-1.41-1.06 ppm • Synergy experiment with sodium pyrithione: • 10.00-7.50-5.63-4.22-3.16-2.37-1.78-1.33-1.00-0.75-0.56-0.42 ppm Test combinations:
(§2) (2000) “Measuring synergy” cosmetics & Toiletries 115(11): 59-62; and Lada, A., A. N. Petrocci, H. A. Green, and J. J. Merianos (1977) “Antimicrobial composition” U.S. Pat. No. 4,061,750, 3 pp.):
(§3) [formula] wherein: • QA is the concentration of compound A in ppm, acting alone, which produced an end point (e.g. MIC), • Qa is the concentration of compound A in ppm, in the mixture, which produced an end point (e.g. MIC), • QB is the concentration of compound B in ppm, acting alone, which produced an end point (e.g. MIC), • Qb is the concentration of compound B in ppm, in the mixture, which produced an end point (e.g. MIC). […]

In assay [2] the test system is Coriolus versicolor CTB863A. Nature of the assay: Poison Plate Assay, fungi. As to conditions: Trametes versicolor, 336 h, read-out: MIC-values (minimum inhibitory concentration) in ppm. The protocol:
as §1, §2, §3

The test system of assay [3] is Ulocladium atrum IMI214699a. Kind of assay: Poison Plate Assay, fungi. How it is done: as §1, §2, §3
Setting [4] is: ppm total active ingredient, Tryptose Agar, 27° C., growth evaluated after five days.

`N#Cc1c[nH]cc1-c1cccc2c1OC(F)(F)O2` [fludioxonil (I-a), 4-(2,2-difluoro-1,3-benzodioxol-4-yl)-1H-pyrrole-3-carbonitrile]: the MIC is 40 µg/mL in assay [1]; 40 µg/mL in assay [2]; 100 µg/mL in assay [3] (Alternaria atra, IMI214699A, 336 h, read-out: MIC-values (minimum inhibitory concentration) in ppm). Also, the “MIC-values (minimum inhibitory concentration) in ppm” value in assay [1] (setting [4]) was found to be 40.00 ppm.
Regarding `[O-][n+]1ccccc1SSc1cccc[n+]1[O-]` [pyrion disulfide (II-g), pyrion disulfide], the MIC in assay [1] (fludioxonil (I-a) with pyrion disulfide (II-g), ppm total active ingredient, Tryptose Agar, 27° C., growth evaluated after five days) is 4.45 µg/mL; in assay [2] (Coriolus versicolor, fludioxonil (I-a) with pyrion disulfide (II-g), ppm total active ingredient, 27° C., growth evaluated after two weeks), 18.8 µg/mL.
As for `[Na+].[O-][n+]1ccccc1[S-]` [sodium pyrithione (II-h), sodium pyrithione], the “MIC-values (minimum inhibitory concentration) in ppm” value in assay [1] (setting [4]) amounted to 4.22 ppm; in assay [3] (Ulocladium atrum, fludioxonil (I-a) with sodium pyrithione (II-h), ppm total active ingredient, 27° C., growth evaluated after two weeks) it was 2.37 ppm.
